Results: patent US10144746B2 (GLOBAL BLOOD THERAPEUTICS, INC., priority 2015, dated 2018)
Counter-ions that a name gives are not always drawn.

Each compound was assayed against Human plasma kallikrein (Homo sapiens (Human), UniProt P03952) (assay: In vitro plasma kallikrein inhibition assay (chromogenic substrate D-Pro-Phe-Arg-pNa, absorbance at 405 nm, IC50 determination)). Conditions: not given.
Sequence of Human plasma kallikrein (P03952 391-638): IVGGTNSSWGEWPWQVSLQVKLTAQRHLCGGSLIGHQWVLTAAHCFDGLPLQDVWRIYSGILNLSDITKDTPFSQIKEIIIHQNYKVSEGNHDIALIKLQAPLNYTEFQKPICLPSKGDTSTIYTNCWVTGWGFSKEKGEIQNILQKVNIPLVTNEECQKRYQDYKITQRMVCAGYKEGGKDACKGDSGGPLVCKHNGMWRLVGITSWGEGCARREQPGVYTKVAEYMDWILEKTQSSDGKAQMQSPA
Sequence of Human plasma kallikrein (P03952 20-390 partner): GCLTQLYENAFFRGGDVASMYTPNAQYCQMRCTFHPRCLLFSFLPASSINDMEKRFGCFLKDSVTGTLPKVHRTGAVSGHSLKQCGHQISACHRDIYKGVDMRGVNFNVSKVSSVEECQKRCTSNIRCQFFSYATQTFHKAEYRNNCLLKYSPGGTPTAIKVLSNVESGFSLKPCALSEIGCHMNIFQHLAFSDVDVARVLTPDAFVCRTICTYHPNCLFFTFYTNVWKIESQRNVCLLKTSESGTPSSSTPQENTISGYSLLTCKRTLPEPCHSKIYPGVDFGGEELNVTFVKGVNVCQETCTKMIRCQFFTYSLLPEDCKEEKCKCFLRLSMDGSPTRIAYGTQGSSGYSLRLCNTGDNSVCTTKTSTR
Assay type: biochemical
Experimental: In Vitro Plasma Kallikrein Inhibition Assay
The chromogenic substrate D-Pro-Phe-Arg-pNa, 2HCl (BIOPHEN CS-31(02) from Hyphen BioMed, Neuville-Sur-oise, France) was dissolved in 5 mL deionized water and stored at 4° C. […] All other chemicals were of analytical grade.
A stock solution of 7 μM in 50% glycerol was stored at −20° C.
Enzyme reactions were conducted in “assay buffer” comprised of 20 mM HEPES at pH 7.4, 150 mM NaCl, 0.1% PEG-8000 and 0.01% Triton X-100.
Both enzyme and substrate were diluted in assay buffer.
Plate measurements were conducted using a SPECTROStar Nano reader (BMG Labtech, San Francisco, Calif., USA). […] We used discrete wavelength, precise, kinetic reads of 15 cycles with a 60 sec cycle time.
Determination of IC50 values
The test compound was dissolved in 100% DMSO. The compounds were serially diluted in DMSO in a 7 point dose response. For the assays, 66.5 μL of protease solution (protease in assay buffer) was added per well followed by the addition of 8.5 μL of compound in 100% DMSO. […] After 30 min. incubation at room temperature on an orbital shaker, the reactions were started by the addition of 10 μL substrate solution (in assay buffer, final assay concentration was 600 uM). After the addition of the substrate solution the final DMSO concentration was 10%. The plate was placed again on the shaker for 5 sec, spun at 2000 rpm for 5 sec and read on the spectrophotometer. […] The IC50 value was calculated from the plot of rate vs. inhibitor concentration by a 4 parameter logistic equation: y=A+((B−A)/([…]))
where y is the rate at the inhibitor concentration, x. A is the minimum y value at the highest inhibitor concentration and B is the y value in the absence of inhibitor, C is the IC50 value and D is the slope factor. The curve fitting was conducted with the non-linear regression routine of the analysis software XLfit (IDBS, version 5.3.1).
With `Cc1cc(N)nc(C)c1CNC(=O)c1ccc2c(c1)C1OC2c2ccc(-c3ccccc3F)cc21` (stereo not shown) the “KLKB1 pIC50” value was 6.91. With `Cc1cc(N)nc(C)c1CNC(=O)c1ccc2c(c1)C1OC2c2cc(N3CCN(C(=O)c4ccccc4)CC3)ccc21` (stereo not shown) the “KLKB1 pIC50” value was 6.55. For `Cc1cc(N)nc(C)c1CNC(=O)c1ccc2c(c1)C1OC2c2ccc(Br)cc21` (stereo not shown), the “KLKB1 pIC50” value was 6. For `Cc1c(CNC(=O)c2ccc3c(c2)C2OC3c3ccc(-c4cccc(F)c4F)cc32)c(F)cc2c1CNC2` (stereo not shown), the “KLKB1 pIC50” value was 5. For `Cc1cc(N)nc(C)c1CNC(=O)c1ccc2c(c1)[C@H]1O[C@@H]2c2ccc(-c3ccc(F)cc3F)cc21`, the “KLKB1 pIC50” value was 4.44.

Same assay, conditions: read-out: KLKB1 pIC50 (converted)
Compound `Cc1cc2c(c(C)c1CNC(=O)c1ccc3c(c1)C1OC3c3ccc(-c4ccc(F)cc4F)cc31)CNC2` (racemic) has an IC50 of 316 nM. `Cc1cc(N)nc(C)c1CNC(=O)c1ccc2c(c1)C1OC2c2ccccc21` (racemic) [Example 1] showed an IC50 of 6310 nM. For `Cc1cc(N)nc(C)c1CNC(=O)c1ccc2c(c1)C1OC2c2ccc(C[N+]3([O-])CCOCC3)cc21` (racemic) [Example 50], the IC50 was 3550 nM. `Cc1cc(N)nc(C)c1CNC(=O)c1ccc2c(c1)C1OC2c2ccc(Nc3ccn(C)n3)cc21` (racemic) [Example 51] gave an IC50 of 933 nM. In the case of `Cc1cc(N)nc(C)c1CNC(=O)c1ccc2c(c1)C1OC2c2cc(Nc3ccnn3C)ccc21` (racemic) [Example 54], the IC50 was 457 nM. `Cc1cc(N)nc(C)c1CNC(=O)c1ccc2c(c1)C1OC2c2ccc(-c3ccc(F)cc3C#N)cc21` (racemic) [Example 69] was tested, and the IC50 was 6.31 nM. Compound `Cc1cc2c(c(C)c1CNC(=O)c1ccc3c(c1)C1OC3c3ccc(-c4cccc(F)c4F)cc31)CNC2` (racemic) [Example 100, trifluoroacetate salt] has an IC50 of 6170 nM. In the case of `Cc1cc(N)nc(C)c1CNC(=O)c1ccc2c(c1)C1OC2c2ccc(-c3ccc(F)c(F)c3F)cc21` (racemic) [Example 104], the IC50 was 28.2 nM. `COc1cc(N)nc(C)c1CNC(=O)c1ccc2c(c1)C1OC2c2ccc(-c3ccc(C)cc3C#N)cc21` (racemic) [Example 105] gave an IC50 of 15.1 nM. Work on `Cc1cc(N)nc(C)c1CNC(=O)c1ccc2c(c1)C1OC2c2ccc(-c3ccc(Cl)c(F)c3F)cc21` (racemic) [Example 106] yielded an IC50 of 22.9 nM. In the case of `Cc1cc(N)nc(C)c1CNC(=O)c1ccc2c(c1)C1OC2c2ccc(-c3ccc(F)c4c3OCO4)cc21` (racemic) [Example 108, trifluoroacetate salt], the IC50 was 25.7 nM. In the case of `Cc1cc(N)nc(C)c1CNC(=O)c1ccc2c(c1)C1OC2c2ccc(-c3ncccc3F)cc21` (racemic) [Example 110, trifluoroacetate salt], the IC50 was 162 nM. In the case of `Cc1cc(N)nc(C)c1CNC(=O)c1ccc2c(c1)C1OC2c2ccc(-c3ncc(F)cc3F)cc21` (racemic) [Example 116, (±)-N-[(6-amino-2,4-dimethylpyridin-3-yl)-methyl]-12-(3,5-difluoropyridin-2-yl)-15-oxatetracyclo[6.6.1.0^2,^7.0^9,1^4] pentadeca-2,4,6,9,11,13-hexaene-4-carboxamide], the IC50 was 45.7 nM. With `COc1cc(N)nc(C)c1CNC(=O)c1ccc2c(c1)C1OC2c2ccc(Cn3cccn3)cc21` (racemic) [Example 117, (±)-N-[(6-amino-4-methoxy-2-methylpyridin-3-yl)methyl]-12-[(1H-pyrazol-1-yl)methyl]-15-oxatetracyclo[6.6.1.0^2,^7.0^9,1^4] pentadeca-2,4,6,9,11,13-hexaene-4-carboxamide] the IC50 was 3.98 nM. With `Cc1ccc(-c2ccc3c(c2)C2OC3c3ccc(C(=O)NCc4c(C)cc(N)nc4C)cc32)c(F)c1F` (racemic) [Example 118, (±)-N-[(6-amino-2,4-dimethylpyridin-3-yl)-methyl]-12-(2,3-difluoro-4-methylphenyl)-15-oxatetracyclo[6.6.1.0^2,^7.0^9,1^4] pentadeca-2,4,6,9,11,13-hexaene-4-carboxamide] the IC50 was 64.6 nM. `Cc1cc(N)nc(C)c1CNC(=O)c1ccc2c(c1)C1OC2c2ccc(-c3ccc(C(F)(F)F)c(F)c3F)cc21` (racemic) [Example 119, (±)-N-[(6-amino-2,4-dimethylpyridin-3-yl)-methyl]-12-[2,3-difluoro-4-(trifluoromethyl)-phenyl]-15-oxatetracyclo[6.6.1.0^2,^7.0^9,1^4] pentadeca-2,4,6,9,11,13-hexaene-4-carboxamide] gave an IC50 of 427 nM. `Cc1cc(N)nc(C)c1CNC(=O)c1ccc2c(c1)C1OC2c2ccc(Oc3ccc(F)cc3F)cc21` (racemic) [Example 120, (±)-N-[(6-amino-2,4-dimethylpyridin-3-yl)-methyl]-12-(2,4-difluorophenoxy)-15-oxatetra-cyclo[6.6.1.0^2,^7.0^9,1^4] pentadeca-2,4,6,9,11,13-hexaene-4-carboxamide] showed an IC50 of 676 nM. In the case of `Cc1cc(N)nc(C)c1CNC(=O)c1ccc2c(c1)C1OC2c2ccc(-c3ccc(F)c(C(F)(F)F)c3)cc21` (racemic) [Example 121, (±)-N-[(6-amino-2,4-dimethylpyridin-3-yl)-methyl]-12-[4-fluoro-3-(trifluoromethyl)phenyl]-15-oxatetracyclo [6.6.1.0^2,^7.0^9,1^4]pentdeca-2,4,6,9,11,13-hexaene-4-carboxamide], the IC50 was 437 nM. In the case of `Cc1cc(N)nc(C)c1CNC(=O)c1ccc2c(c1)C1OC2c2ccc(Oc3ccc(F)c(F)c3)cc21` (racemic) [Example 122, (±)-N-[(6-amino-2,4-dimethylpyridin-3-yl)-methyl]-12-(3,4-difluorophenoxy)-15-oxatetracyclo[6.6.1.0^2,^7.0^9,1^4] pentadeca-2,4,6,9,11,13-hexaene-4-carboxamide], the IC50 was 148 nM. In the case of `Cc1cc(N)nc(C)c1CNC(=O)c1ccc2c(c1)C1OC2c2ccc(-c3ccc4[nH]cnc4c3)cc21` (racemic) [Example 123, (±)-N-[(6-amino-2,4-dimethylpyridin-3-yl)-methyl]-12-(1H-1,3-benzodiazol-5-yl)-15-oxatetracyclo[6.6.1.0^2,^7.0^9,1^4] pentadeca-2,4,6,9,11,13-hexaene-4-carboxamide], the IC50 was 282 nM. Work on `Cc1cc2c(c(C)c1CNC(=O)c1ccc3c(c1)C1OC3c3ccc(-c4c(C)cccc4F)cc31)CNC2` (racemic) [Example 124, (±)-N-[(4,6-dimethyl-2,3-dihydro-1H-isoindol-5-yl)methyl]-12-(2-fluoro-6-methylphenyl)-15-oxatetracyclo[6.6.1.0^2,^7.0^9,1^4] pentadeca-2,4,6,9,11,13-hexaene-4-carboxamide] yielded an IC50 of 11500 nM. `Cc1cc(CN)cc(C)c1CNC(=O)c1ccc2c(c1)C1OC2c2ccc(-c3ccc(Cl)c(F)c3F)cc21` (racemic) [Example 125, (±)-N-{[4-(aminomethy])-2,6-dimethylphenyl]-methyl}-12-(4-chloro-2,3-difluorophenyl)-15-oxatetracyclo-[6.6.1.0^2,^7.0^9,1^4]pentadeca-2,4,6,9,11,13-hexaene-4-carboxamide] gave an IC50 of 661 nM. With `C#Cc1ccccc1-c1ccc2c(c1)C1OC2c2ccc(C(=O)NCc3c(C)cc(N)nc3C)cc21` (racemic) [Example 126, (±)-N-[(6-amino-2,4-dimethylpyridin-3-yl)-methyl]-12-(2-ethynylphenyl)-15-oxatetra-cyclo[6.6.1.0^2,^7.0^9,1^4]pentadeca-2,4,6,9,11,13-hexaene-4-carboxamide] the IC50 was 6310 nM.
